Legend:
S. epidermidis [1] = experiment: MIC and MBC, broth microdilution (Example 3); format: cell-based, Staphylococcus epidermidis
Source text: (§1) This study used clinically relevant strains isolated from patients with prosthetic joint infections at the Microbiology Laboratory of the IRCCS Galeazzi Orthopaedic institute (Italy). In particular, the following were selected: strains of methicillin-resistant Staphylococcus epidermidis, of methicillin-resistant Staphylococcus aureus and of Pseudomonas aeruginosa. These strains were identified beforehand by means of biochemical assays (VITEK® 2 Compact, bioMérieux, Marcy l'Etoile, France) and stored at −80° C. prior to the analysis. Before beginning the study, all strains were screened to assess their ability to produce biofilms, according to the spectrophotometric assay described by Christensen et al. (J Clin Microbiol 1985; 22: 996-1006).
(§2) The bacteriostatic and bactericidal activity of vitamin E acetate and vitamin E phosphate against the above-mentioned bacterial strains was assessed by measuring the minimum inhibitory concentration (MIC) and the minimum bactericidal concentration (MBC). MIC, defined as the lowest concentration capable of inhibiting bacterial growth, was determined using the broth microdilution method according to EUCAST guidelines (http://www.eucast.org/clinical_breakpoints/).
(§3) In short, a suspension in Brain Heart Infusion Broth (BHI; Biomérieux, Marci l'Etoile, France) was prepared for each bacterial strain, with an optical density of 0.5 McFarland (1.5×10^8 CFU/ml). The P. acnes broth was supplemented with 5% defibrinated sheep blood (Liofilchem, Roseto degli Abruzzi, Italy). After a concentration of 10^5 UFC/ml was obtained using appropriate dilutions, each suspension was inoculated in a 96-well microtitre plate containing a two-fold serial dilution of vitamin E acetate (VitE-Ac) and vitamin E phosphate. The controls were performed by inoculating bacterial suspensions in BHI alone. […] After incubation at adequate conditions, MBC was read as the lowest concentration capable of killing 99.9% of the initial inoculum.

P. acnes = experiment: MIC and MBC, broth microdilution (Example 3); format: cell-based
Method: as §3, with “MIC, defined as the lowest concentration capable of inhibiting bacterial growth, was determined using the broth microdilution method according to EUCAST guidelines (http://www.eucast.org/clinical_breakpoints/). In short,” for “In short,”, “Infusion Broth ([…], France) was” for “Infusion Broth (BHI; Biomérieux, Marci l'Etoile, France) was”, “sheep blood ([…] Abruzzi, Italy).” for “sheep blood (Liofilchem, Roseto degli Abruzzi, Italy).”

P. aeruginosa [2] = experiment: Anti-adhesion activity on coated titanium disks, CFU count (Example 3); format: cell-based, Pseudomonas aeruginosa
Method: (§4) Sterile disks of sandblasted titanium with a diameter of 25 mm and a thickness of 5 mm (Adler Ortho, Cormano, Italy) were used as the substrate for the formation of biofilms. The disks were coated with sub-inhibitory concentrations of vitamin E acetate (5 mg/cm^2) or vitamin E phosphate (5 mg/cm^2). The concentrations were selected based on the MIC results. Uncoated disks were used as negative controls. The anti-adhesion activity of vitamin E was assessed against a representative strain for each species. An overnight bacteria culture was resuspended in Brain Heart Infusion Broth (BHI; Biomérieux) at a density of 1.0×10^7 CFU/ml for each strain, and 400 microliters of microbial suspension were inoculated on coated and uncoated disks. The test was performed in triplicate for each strain. After 30, 60 and 120 minutes of incubation, the disks were washed twice with a sterile saline solution to eliminate non-adherent bacteria. The disks were then immersed in 5 ml of a 0.1 w/v % dithiothreitol solution (DTT, Sigma-Aldrich, Milan, Italy) and mechanically stirred for 15 minutes at room temperature. Suitable dilutions of the fluids obtained were inoculated on Tryptic Soy Agar (TSA, Merck) and incubated at 37° C. in an aerobic atmosphere for 24 hours for the CFU count.

S. aureus [3] = experiment: as above; format: cell-based, Staphylococcus aureus
Method: as §4

S. aureus [4] = experiment: Anti-biofilm activity on coated titanium disks, CFU count (Example 3); format: cell-based, Staphylococcus aureus; settings: 48 hours, 5 mg/cm^2 coating
Method: Coated and uncoated titanium disks were prepared as described above and utilized as the substrate for the formation of biofilms. Subsequently, an overnight bacteria culture was resuspended in Brain Heart Infusion Broth (BHI; Biomérieux) at a density of 1.5×10^8 CFU/ml for each strain, and 200 microliters of microbial suspension were inoculated in sterile polystyrene plates with 6 wells containing coated and uncoated disks and 4.8 ml of BHI. The plates were incubated at 37° C. in an aerobic atmosphere for 24 and 48 hours. The test was performed in triplicate for each strain.
At the end of the biofilm incubation time, the disks were treated as described above and the detached cells of the biofilm were inoculated on Tryptic Soy Agar and incubated at 37° C. in an aerobic atmosphere for 24 hours for the CFU count.

S. aureus [5] = experiment: MIC and MBC, broth microdilution (Example 3); format: cell-based, Staphylococcus aureus
Source text: as §1, §2, §3

P. aeruginosa [6] = experiment: MIC and MBC, broth microdilution (Example 3); format: cell-based, Pseudomonas aeruginosa
Source text: as §1, §2, §3

S. epidermidis [7] = experiment: Anti-adhesion activity on coated titanium disks, CFU count (Example 3); format: cell-based, Staphylococcus epidermidis
Method: as §4

rats or mice = settings: rat or mouse; cited from earlier work
[8] = test system: S. aureus, S. epidermidis, E. coli, P. aeruginosa and C. albicans (all the strains tested); experiment: Antimicrobial activity, MIC by broth microdilution (Example 1); format: cell-based; settings: mean over all strains tested; VitE diluted in hyaluronic acid; read after 24 hours at 37° C.
Method: The microbial strains utilized in this study were isolated from clinical samples collected from bone and soft tissue infections. In particular, strains of S. aureus, S. epidermidis, E. coli, P. aeruginosa and C. albicans were utilized. They were identified beforehand by means of biochemical assays and examined to assess their ability to produce biofilms, according to the spectrometric assay described by Christensen et al. (1985). The microorganisms were stored at −80° C. prior to the analysis. Prior to use, the strains were thawed and cultivated in an appropriate culture medium at 37° C. for 24 h. Antimicrobial activity was assessed by determining the minimum inhibitory concentration (MIC). MIC, defined as the lowest concentration of an antimicrobial substance that inhibits the visible growth of a microorganism, was determined using the broth microdilution method, in accordance with the guidelines of the European Committee on Antimicrobial Susceptibility Testing (EUCAST). […] VitE was diluted in hyaluronic acid (HA) at various concentrations, for which the growth checks were performed by inoculating the microbial suspension in BHI+HA. […] The assay was conducted in duplicate and repeated twice.

[9] = 5 mg/cm^2 coating, 30, 60 and 120 minutes
[10] = 5 mg/cm^2 coating, range over 30, 60 and 120 minutes

Cc1c(C)c2c(c(C)c1OP(=O)([O-])[O-])CC[C@@](C)(CCC[C@H](C)CCC[C@H](C)CCCC(C)C)O2.[Na+].[Na+] [Vitamin E phosphate, α-tocopherol phosphate disodium salt]
bactericidal at the concentrations tested (in words) (S. epidermidis [1]; S. epidermidis): bactericidal
MIC range (S. epidermidis [1]; S. epidermidis strains, 24 hours): 3.13 to 100 mg/mL
MBC range (S. epidermidis [1]; S. epidermidis strains, kills 99.9% of the initial inoculum): 25 to 100 mg/mL
bactericidal at the concentrations tested (in words) (P. acnes): bactericidal
MIC range (P. acnes; 48 hours, broth with 5% defibrinated sheep blood): 1.56 to 6.25 mg/mL
MBC range (P. acnes; kills 99.9% of the initial inoculum): 31.25 to 50 mg/mL
decrease in adhesion (in words) (P. aeruginosa [2]; [9]): significant decrease for all the strains tested, with the exception of the last time period tested for P. aeruginosa
inhibition of adhesion with respect to the control (P. aeruginosa [2]; [10]): 7-65%
decrease in adhesion (in words) (S. aureus [3]; [9]): significant decrease
inhibition of adhesion with respect to the control (S. aureus [3]; [10]): 60-78%
biofilm reduction with respect to the controls (in words) (S. aureus [4]): significantly inhibited
bactericidal at the concentrations tested (in words) (S. aureus [5]; S. aureus): bactericidal
MIC range (S. aureus [5]; S. aureus strains, 24 hours): 25 to 100 mg/mL
MBC range (S. aureus [5]; S. aureus strains, kills 99.9% of the initial inoculum): 25 to 200 mg/mL
bactericidal at the concentrations tested (in words) (P. aeruginosa [6]; P. aeruginosa): not against P. aeruginosa
MIC range (P. aeruginosa [6]; P. aeruginosa strains, 24 hours): 100 to 200 mg/mL
MBC range (P. aeruginosa [6]; P. aeruginosa strains, kills 99.9% of the initial inoculum): >200 mg/mL
decrease in adhesion (in words) (S. epidermidis [7]; [9]): significant decrease
inhibition of adhesion with respect to the control (S. epidermidis [7]; [10]): 84-95%

vitamin E
LD50 (rats or mice): 4000 mg of vitamin E/kg
mean MIC value [8]: 2.5%

From patent publication US20190015385A1, “VITAMIN E PHOSPHATE OR ACETATE FOR USE IN THE TREATMENT AND PREVENTION OF BIOFILM INFECTIONS” (priority 2016, published 2019)
